Results from PubChem BioAssay AID220 (DTP/NCI, 2004).
“And” between values parts separate entries of the source, which are not always exact repeats. Equal entries are not always repeated. Records with an inconclusive call do not appear.

System: CD8F1 mice, subcutaneous mammary adenocarcinoma, T/C%
Test: NCI In Vivo Anticancer Drug Screen. Data for tumor model Mammary Adenocarcinoma CD8F1 (subcutaneous) in CD8F1
Conditions: higher = larger tumour
Experimental: The antitumor activity of compounds was measured in mice bearing transplantable tumors. Survival or tumor size were measured and the results are expressed as the measurement made in the treated group (T) divided by the measurement made in the vehicle treated control group (C). The tumor model used in this assay is Mammary Adenocarcinoma CD8F1 (subcutaneous) in CD8F1

[1] = endpoint: median tumor weight (est.), dose: 12.5 mg/kg/injection, schedule: Q07DX005 (ip), vehicle: Klucel (hydroxypropylcellulose) (HPC)
[2] = endpoint: median tumor weight (est.), dose: 25.0 mg/kg/injection, schedule: Q07DX005 (ip), vehicle: Klucel (hydroxypropylcellulose) (HPC)
[3] = endpoint: median tumor weight (est.), dose: 50.0 mg/kg/injection, schedule: Q07DX005 (ip), vehicle: Klucel (hydroxypropylcellulose) (HPC)
[4] = endpoint: median tumor weight change, dose: 250.0 mg/kg/injection, schedule: Q01DX001 (ip), vehicle: saline
[5] = endpoint: median tumor weight (est.), dose: 800.0 mg/kg/injection, schedule: Q07DX005 (ip), vehicle: saline with Tween-80
[6] = endpoint: median tumor weight (est.), dose: 1600.0 mg/kg/injection, schedule: Q07DX005 (ip), vehicle: saline with Tween-80
[7] = endpoint: median tumor weight (est.), dose: 3200.0 mg/kg/injection, schedule: Q07DX005 (ip), vehicle: saline with Tween-80
[8] = endpoint: median tumor weight (est.), dose: 16.0 mg/kg/injection, schedule: Q07DX005 (ip), vehicle: saline
[9] = endpoint: median tumor weight change, dose: 4.0 mg/kg/injection, schedule: Q01DX001 (ip), vehicle: saline

## CC12CC(C(=O)O)C3(O)CC(C)(C1)CC(C)(C2)C3 (stereo unspecified) (tested in a mixture with another compound)
[1]
  T/C: 93 % of control
[2]
  T/C: 78 % of control
[3]
  T/C: 56 % of control
endpoint: median tumor weight (est.), dose: 200.0 mg/kg/injection, schedule: Q07DX005 (ip), vehicle: Klucel (hydroxypropylcellulose) (HPC)
  T/C: 87 % of control
endpoint: median tumor weight (est.), dose: 400.0 mg/kg/injection, schedule: Q07DX005 (ip), vehicle: Klucel (hydroxypropylcellulose) (HPC)
  T/C: 71 % of control

## CCCCCC[C@@H](O)C/C=C\CCCCCCCC(=O)OCCO
endpoint: median tumor weight change, dose: 125.0 mg/kg/injection, schedule: Q01DX001 (ip), vehicle: saline
  T/C: 96 % of control
[4]
  T/C: 91 % of control
endpoint: median tumor weight change, dose: 500.0 mg/kg/injection, schedule: Q01DX001 (ip), vehicle: saline
  T/C: 98 % of control
endpoint: median tumor weight change, dose: 1000.0 mg/kg/injection, schedule: Q01DX001 (ip), vehicle: saline
  T/C: 103 % of control
endpoint: median tumor weight change, dose: 2000.0 mg/kg/injection, schedule: Q01DX001 (ip), vehicle: saline
  T/C: 95 % of control

## O=c1[nH]c(=O)n(C2CC(O)C(CO)O2)cc1I (stereo unspecified)
endpoint: median tumor weight (est.), dose: 182.87 mg/kg/injection, schedule: Q07DX005 (ip), vehicle: saline with Tween-80
  T/C: 99 % of control
endpoint: median tumor weight (est.), dose: 365.75 mg/kg/injection, schedule: Q07DX005 (ip), vehicle: saline with Tween-80
  T/C: 76 % of control
endpoint: median tumor weight (est.), dose: 731.5 mg/kg/injection, schedule: Q07DX005 (ip), vehicle: saline with Tween-80
  T/C: 91 % of control
[5]
  T/C: 45 % of control and 50 % of control
endpoint: median tumor weight (est.), dose: 1463.0 mg/kg/injection, schedule: Q07DX005 (ip), vehicle: saline with Tween-80
  T/C: 50 % of control
[6]
  T/C: 46 % of control and 53 % of control
[7]
  T/C: 7 % of control and 10 % of control

## O=c1cnn(C2OC(CO)C(O)C2O)c(=O)[nH]1 (stereo unspecified)
endpoint: mean tumor weight, dose: 125.0 mg/kg/injection, schedule: Q07DX004 (ip), vehicle: saline
  T/C: 67 % of control
endpoint: mean tumor weight, dose: 250.0 mg/kg/injection, schedule: Q07DX004 (ip), vehicle: saline
  T/C: 49 % of control
endpoint: median tumor weight (est.), dose: 100.0 mg/kg/injection, schedule: Q07DX005 (ip), vehicle: saline with Tween-80
  T/C: 63 % of control
endpoint: median tumor weight (est.), dose: 100.0 mg/kg/injection, schedule: Q07DX005 (ip), vehicle: saline
  T/C: 17 % of control
endpoint: median tumor weight (est.), dose: 200.0 mg/kg/injection, schedule: Q07DX005 (ip), vehicle: saline with Tween-80
  T/C: 95 % of control
endpoint: median tumor weight (est.), dose: 200.0 mg/kg/injection, schedule: Q07DX005 (ip), vehicle: saline
  T/C: 63 % of control
endpoint: median tumor weight (est.), dose: 400.0 mg/kg/injection, schedule: Q07DX005 (ip), vehicle: saline with Tween-80
  T/C: 53 % of control
endpoint: median tumor weight (est.), dose: 400.0 mg/kg/injection, schedule: Q07DX005 (ip), vehicle: saline
  T/C: 41 % of control
[5]
  T/C: 66 % of control
endpoint: median tumor weight (est.), dose: 800.0 mg/kg/injection, schedule: Q07DX005 (ip), vehicle: saline
  T/C: 64 % of control
[6]
  T/C: 68 % of control
[7]
  T/C: 54 % of control
endpoint: median tumor weight (est.), dose: 3200.0 mg/kg/injection, schedule: Q07DX005 (ip), vehicle: saline
  T/C: 76 % of control

## CCCCNCCCNCCCNC(=O)c1csc(-c2csc(CCNC(=O)C(NC(=O)C(C)C(O)C(C)NC(=O)C(NC(=O)c3nc(C(CC(N)=O)NCC(N)C(N)=O)nc(N)c3C)C(OC3OC(CO)C(O)C(O)C3OC3OC(CO)C(O)C(OC(N)=O)C3O)c3cnc[nH]3)C(C)O)n2)n1 (stereo unspecified)
endpoint: median tumor weight (est.), dose: 4.0 mg/kg/injection, schedule: Q07DX005 (ip), vehicle: saline
  T/C: 16 % of control
endpoint: median tumor weight (est.), dose: 8.0 mg/kg/injection, schedule: Q07DX005 (ip), vehicle: saline
  T/C: 10 % of control
[8]
  T/C: 16 % of control

## NC(=O)c1cn(C2OC(CO)C(O)C2O)c2ncnc(N)c12 (stereo unspecified)
endpoint: median tumor weight (est.), dose: 1.0 mg/kg/injection, schedule: Q07DX005 (ip), vehicle: suspension in saline
  T/C: 63 % of control
endpoint: median tumor weight (est.), dose: 2.0 mg/kg/injection, schedule: Q07DX005 (ip), vehicle: suspension in saline
  T/C: 27 % of control and 45 % of control
endpoint: median tumor weight change, dose: 0.25 mg/kg/injection, schedule: Q01DX001 (ip), vehicle: saline
  T/C: 121 % of control
endpoint: median tumor weight change, dose: 0.5 mg/kg/injection, schedule: Q01DX001 (ip), vehicle: saline
  T/C: 91 % of control
endpoint: median tumor weight change, dose: 1.0 mg/kg/injection, schedule: Q01DX001 (ip), vehicle: saline
  T/C: 81 % of control
endpoint: median tumor weight change, dose: 1.25 mg/kg/injection, schedule: Q01DX001 (ip), vehicle: suspension in saline
  T/C: 88 % of control
endpoint: median tumor weight change, dose: 2.0 mg/kg/injection, schedule: Q01DX001 (ip), vehicle: saline
  T/C: 107 % of control
endpoint: median tumor weight change, dose: 2.5 mg/kg/injection, schedule: Q01DX001 (ip), vehicle: suspension in saline
  T/C: 102 % of control
[9]
  T/C: 95 % of control
endpoint: median tumor weight change, dose: 5.0 mg/kg/injection, schedule: Q01DX001 (ip), vehicle: suspension in saline
  T/C: 70 % of control
endpoint: median tumor weight change, dose: 8.0 mg/kg/injection, schedule: Q01DX001 (ip), vehicle: saline
  T/C: 79 % of control

## O=C1C2(Cl)C3(Cl)C4(Cl)C(Cl)(Cl)C5(Cl)[C@]3(Cl)C1(Cl)[C@]5(Cl)C24Cl (stereo partly specified)
[1]
  T/C: 71 % of control
[2]
  T/C: 91 % of control
[3]
  T/C: 67 % of control

## CNc1n[n+](-c2ccccc2)no1
endpoint: mean tumor weight, dose: 3.12 mg/kg/injection, schedule: Q07DX006 (ip), vehicle: saline
  T/C: 90 % of control
endpoint: mean tumor weight, dose: 12.5 mg/kg/injection, schedule: Q07DX006 (ip), vehicle: saline
  T/C: 27 % of control
endpoint: mean tumor weight, dose: 25.0 mg/kg/injection, schedule: Q07DX006 (ip), vehicle: saline
  T/C: 81 % of control
endpoint: mean tumor weight, dose: 50.0 mg/kg/injection, schedule: Q07DX006 (ip), vehicle: saline
  T/C: 2 % of control
endpoint: median tumor weight (est.), dose: 3.12 mg/kg/injection, schedule: Q07DX005 (ip), vehicle: saline
  T/C: 157 % of control
endpoint: median tumor weight (est.), dose: 50.0 mg/kg/injection, schedule: Q07DX005 (ip), vehicle: saline
  T/C: 50 % of control and 60 % of control

## Cc1nnc2ncccn12
[4]
  T/C: 92 % of control

## O=NN(CCCl)C(=O)NC1[C@H](O)CCC[C@@H]1O (stereo partly specified)
endpoint: median tumor weight change, dose: 6.25 mg/kg/injection, schedule: Q01DX001 (ip), vehicle: saline
  T/C: 71 % of control and 73 % of control
endpoint: median tumor weight change, dose: 12.5 mg/kg/injection, schedule: Q01DX001 (ip), vehicle: saline
  T/C: 15 % of control and 17 % of control
endpoint: median tumor weight change, dose: 25.0 mg/kg/injection, schedule: Q01DX001 (ip), vehicle: saline
  T/C: 6 % of control

## O=C1C=CC(=O)N1c1ccc(Cl)cc1
endpoint: median tumor weight (est.), dose: 5.0 mg/kg/injection, schedule: Q07DX003 (ip), vehicle: Klucel (hydroxypropylcellulose) (HPC)
  T/C: 65 % of control
endpoint: median tumor weight (est.), dose: 20.0 mg/kg/injection, schedule: Q07DX003 (ip), vehicle: Klucel (hydroxypropylcellulose) (HPC)
  T/C: 109 % of control

## ClCc1ccc2ccccc2n1
endpoint: median tumor weight change, dose: 62.5 mg/kg/injection, schedule: Q01DX001 (ip), vehicle: saline with Tween-80
  T/C: 69 % of control
endpoint: median tumor weight change, dose: 125.0 mg/kg/injection, schedule: Q01DX001 (ip), vehicle: saline with Tween-80
  T/C: 54 % of control
endpoint: median tumor weight change, dose: 250.0 mg/kg/injection, schedule: Q01DX001 (ip), vehicle: saline with Tween-80
  T/C: 76 % of control

## [I][Hg][CH2]C1COC([CH2][Hg][I])CO1 (stereo unspecified)
endpoint: median tumor weight (est.), dose: 6.25 mg/kg/injection, schedule: Q07DX005 (ip), vehicle: suspension in saline
  T/C: 103 % of control
endpoint: median tumor weight (est.), dose: 12.5 mg/kg/injection, schedule: Q07DX005 (ip), vehicle: suspension in saline
  T/C: 167 % of control
endpoint: median tumor weight (est.), dose: 25.0 mg/kg/injection, schedule: Q07DX005 (ip), vehicle: suspension in saline
  T/C: 227 % of control
endpoint: median tumor weight (est.), dose: 50.0 mg/kg/injection, schedule: Q07DX005 (ip), vehicle: suspension in saline
  T/C: 27 % of control

## Cc1c(N)nc([C@H](CC(N)=O)NC[C@H](N)C(N)=O)nc1C(=O)N[C@H](C(=O)N[C@H](C)[C@@H](O)[C@H](C)C(=O)N[C@H](C(=O)NCCc1nc(-c2nc(C(=O)NCCC[S+](C)C)cs2)cs1)[C@@H](C)O)C(OC1OC(CO)C(O)C(O)C1OC1OC(CO)C(O)C(OC(N)=O)C1O)c1cnc[nH]1 (stereo partly specified)
endpoint: median tumor weight (est.), dose: 1.0 mg/kg/injection, schedule: Q07DX006 (ip), vehicle: saline
  T/C: 93 % of control
endpoint: median tumor weight (est.), dose: 2.0 mg/kg/injection, schedule: Q07DX005 (ip), vehicle: saline
  T/C: 25 % of control
endpoint: median tumor weight (est.), dose: 2.0 mg/kg/injection, schedule: Q07DX006 (ip), vehicle: saline
  T/C: 100 % of control
endpoint: median tumor weight (est.), dose: 8.0 mg/kg/injection, schedule: Q07DX006 (ip), vehicle: saline
  T/C: 55 % of control
[8]
  T/C: 10 % of control and 13 % of control and 23 % of control
endpoint: median tumor weight (est.), dose: 16.0 mg/kg/injection, schedule: Q07DX006 (ip), vehicle: saline
  T/C: 61 % of control
endpoint: median tumor weight (est.), dose: 32.0 mg/kg/injection, schedule: Q07DX005 (ip), vehicle: saline
  T/C: 6 % of control and 7 % of control
endpoint: median tumor weight (est.), dose: 32.0 mg/kg/injection, schedule: Q07DX006 (ip), vehicle: saline
  T/C: 8 % of control
endpoint: median tumor weight (est.), dose: 64.0 mg/kg/injection, schedule: Q07DX005 (ip), vehicle: saline
  T/C: 2 % of control
[9]
  T/C: 124 % of control
